Measurements reported in patent publication US20160375050A1, “METHODS AND COMPOSITIONS INVOLVING CHITOSAN NANOPARTICLES” (The Board of Regents of the University of Texas System, priority 2007, published 2016).

Tests used:
[1] = system: EZH2 promoter in EAhy926 endothelial cell line; experiment: EZH2 promoter luciferase reporter assay; assay type: cell-based, human; conditions: EAhy926, 6 hours, EGF 25 ng/mL, VEGF 50 ng/mL
Procedure: Relative activity of the EZH2 promoter in the EAhy926 cell line was determined by luciferase reporter assay. Cells were transfected in low-serum medium (0.5% serum) with the firefly luciferase plasmid, either empty vector (pGL3-Basic) or the EZH2 promoter construct vector (EZH2prom-pGL3-Basic), in 12-well plates using Effectene® Transfection Reagent from Qiagen (Valencia, Calif.). Cells were then maintained in low-serum medium for 18 hours, washed in warm 1× phosphate-buffered saline (PBS), and treated in triplicate at 37° C. for 6 hours. Treatments included recombinant human (rh) EGF (EGF; 25 ng/mL; Invitrogen) and rhVEGF165 (VEGF; 50 ng/mL; Peprotech, Rocky Hill, N.J.), each in fresh medium plus 0.5% serum, fresh complete medium plus 10% serum, and conditioned media from immortalized ovarian surface epithelium (105E120) and from papillary serous ovarian cancer cell lines (OVCA420 and SKOV3). Medium in control wells (pGL3-Basic transfectants) was not changed on the day of treatment. Following treatment, cells were washed briefly in cold 1×PBS and lysates were collected and processed using the Dual-Luciferase® Reporter Assay System (Promega Corp.). Firefly luciferase readings were averaged and normalized to pGL3-Basic control readings for percent fold changes.

VASH1 mRNA in MOEC = experiment: VASH1 mRNA after EZH2 gene silencing, real-time qRT-PCR; assay type: cell-based, mouse; conditions: 72 hours after transfection
Procedure: Relative expression of EZH2 and VASH1 mRNA in HUVEC and MOEC cells was determined by real-time quantitative RT-PCR. Cells were seeded at 1.0×10^4 cells per well in 96-well plates in complete medium and incubated at 37° C. for 24 hours, and then in low-serum medium (0.5% serum) for 18 hours, minus EGF and VEGF supplements where appropriate. After washing with warm PBS, cells were treated in triplicate at 37° C. for six hours with EGF (25 ng/mL) and VEGF (50 ng/mL), each in fresh medium (lacking supplemental EGF or VEGF) with no serum, fresh complete medium plus 2% serum, and conditioned media. Relative expression of VASH1 mRNA in MOEC cells was determined by transfecting cells with EZH2 mouse siRNA. Samples were collected after 72 hours of transfection. Real-time quantitative RT-PCR was performed using 50 ng total RNA isolated from treated cells using the RNeasy Mini Kit (Qiagen). Relative expression values were obtained using the average of three reference genes and the 2^−ΔΔCT method as described previously, and normalized to control for percent fold changes (Donninger et al., 2004).

In the case of “EGF: recombinant human EGF, Invitrogen (NSDSECPLSHDGYCLHDGVCMYIEALDKYACNCVVGYIGERCQYRDLKWWELR; Epidermal growth factor; UniProt P01133 971-1023, looked up)”, the EZH2 promoter activity [1] is reported as “significant increase”.

For VEGF, the EZH2 promoter activity [1] was “significant increase”.

“mouse EZH2 siRNA: Murine EZH2 siRNA, target 5′-GCACAAGTCATCCCGTTAATT-3′ (SEQ ID NO: 15), transfected in vitro (target site or template, no part of the molecule; listed as DNA, chemistry not given here)” was tested, and the “increase in VASH1 mRNA compared to control siRNA treated cells” value (VASH1 mRNA in MOEC) was 2.8 fold.
